Laboratory results as given in US20060069132A1, “Azolecarboxamide herbicides” (priority 2004, published 2006).

Experiments:
corn (ZEAMD) = assay: Test J Compounds 2 and 6 alone and in combination with other herbicides, foliage spray; type: in vivo, Zea mays; set-up: key: percentage herbicidal effect (observed); conditions: applied alone
From the text: Colby's Equation was used to calculate the expected additive herbicidal effect of the mixtures of Compound 6 with Harmony® Extra (i.e. a 2:1 mixture by weight of thifensulfuron-methyl and tribenuron-methyl). Colby's Equation (Colby, S. R. “Calculating Synergistic and Antagonistic Responses of Herbicide Combinations,” Weeds, 15(1), pp 20-22 (1967)) calculates the expected additive effect of herbicidal mixtures, and for two active ingredients is of the form: Pa+b=Pa+Pb−(PaPb/100) wherein • Pa+b is the percentage effect of the mixture expected from additive contribution of the individual components, • Pa is the observed percentage effect of the first active ingredient at the same use rate as in the mixture, and • Pb is the observed percentage effect of the second active ingredient at the same use rate as in the mixture.
Seeds of test plants consisting of barnyardgrass (ECHCG; Echinochloa crus-galli (L.) Beauv.), blackgrass (ALOMY; Alopecurus myosuroides Huds.), Surinam grass (BRADC; Urochloa decumbens (Staph) R. D. Webster, previously named Brachiaria decumbens Stapf), cocklebur (XANST, Xanthium strumarium L.), corn (ZEAMD, Zea mays L. cv. ‘Pioneer 33G26’), large crabgrass (DIGSA, Digitaria sanguinalis (L.) Scop.), giant foxtail (SETFA, Setaria faberi Herrm.), lambsquarters (CHEAL, Chenopodium album L.), morningglory (IPOCO, Ipomoea coccinea L.), pigweed (AMARE, Amaranthus retroflexus L.), velvetleaf (ABUTH, Abutilon theophrasti Medik.) wheat (TRZAS, Triticum aestivum L. cv. ‘Recital’) and wild oat (AVEFA, Avena fatua L.) were planted in Redi-Earth® planting medium (Scotts Company, 14111 Scottslawn Road, Marysville, Ohio 43041) comprising spaghnum peat moss and vermiculite. Seeds of small-seeded species were planted about 1 cm deep; larger seeds were planted about 2.5 cm deep. Plants were grown in a greenhouse using supplemental lighting to maintain a photoperiod of about 14 hours; daytime and nighttime temperatures were about 24-30° C. and 22-25° C., respectively. Balanced fertilizer was applied through the watering system. The plants were grown for 7 to 11 days so that at time of treatment the plants ranged in height from 2 to 18 cm (1- to 4-leaf stage). Treatments consisted of Compounds 2 and 6 (technical material), atrazine (90DF), terbacil (Sinbar® 80DF), hexazinone (Velpar® 75WG), diuron (Karmex® 80WP) and paraquat (Gramoxone® Extra, 37%) alone and in combination, suspended or dissolved in an aqueous solvent comprising a nonionic surfactant and applied as a foliage spray using a volume of 541 L/ha. Each treatment was triply replicated. […] Treated plants and controls were maintained in the greenhouse and watered as needed with care to not wet the foliage for the first 24 hours after treatment. The effects on the plants 15 days after treatment were visually compared to untreated controls. Plant response ratings, listed in Table J as the means of the thee replicates, are based on a scale of 0 to 100 where 0 is no effect and 100 is complete control. Also listed in Table J are the expected effects for the mixtures calculated using Colby's Equation.

blackgrass (ALOMY) = assay: as above; type: in vivo, Alopecurus myosuroides; set-up: key: 0 = no effect, 100 = complete control; conditions: applied alone
In short: (§1)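 Seeds were sown in peat–vermiculite medium and grown 7–11 days under supplemental light. Seedlings then received compound alone or partner herbicide combinations as a foliage spray at 541 L/ha. After 15 days, response was scored visually on a 0–100 scale against untreated plants.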

wild oat (AVEFA) = assay: as above; type: in vivo, Avena fatua; set-up: key: 0 = no effect, 100 = complete control; conditions: applied alone
In short: as §1

windgrass = assay: Test F pre-/postemergence herbicide test; type: in vivo, Apera spica-venti; conditions: 125 g ai/ha
From the text: Seeds of plant species selected from annual blugrass (Poa annua L.), blackgrass (Alopecurus myosuroides Huds.), catchweed bedstraw (Gallium aparine L.), common chickweed (Stellaria media (L.) Vill./Cyr.), downy bromegrass (Bromus tectorum L.), green foxtail (Setaria viridis (L.) Beauv.), Italian ryegrass (Lolium multiflorum Lam.), kochia (Kochia scoparia (L.). Schrad.), lambsquarters (Chenopodium album L.), littleseed canarygrass (Phalaris minor Retz.), pigweed (Amaranthus retroflexus L.), Russian thistle (Salsola kali L. ssp. Ruthenica (Iljin) Soo), wild buckwheat (Polygonum convolvulus L.), wild mustard (Sinapis arvensis L.), wild oat (Avena fatua L.), windgrass (Apera spica-venti (L.) Beauv.), winter barley (Hordeum vulgare L.), and wheat (Triticum aestivum L.) were planted and treated preemergence with test chemicals formulated in a non-phytotoxic solvent mixture which included a surfactant.
At the same time, plants selected from these crop and weed species were treated with postemergence applications of some of the test chemicals formulated in the same manner. Plants ranged in height from 2 to 18 cm (1- to 4-leaf stage) for postemergence treatments. Treated plants and controls were maintained in a greenhouse for 12 to 14 days, after which time all species were compared to controls and visually evaluated. […]

| Compound | ZEAMD Obsd. (corn (ZEAMD); 62 g a.i./ha) | ZEAMD Obsd. (corn (ZEAMD); 125 g a.i./ha) | ALOMY Obsd. (blackgrass (ALOMY); 62 g a.i./ha) | ALOMY Obsd. (blackgrass (ALOMY); 125 g a.i./ha) | AVEFA Obsd. (wild oat (AVEFA); 62 g a.i./ha) | AVEFA Obsd. (wild oat (AVEFA); 125 g a.i./ha) | Plant response rating (0-100), Windgrass (windgrass; Postemergence) | Plant response rating (0-100), Windgrass (windgrass; Preemergence) |
| --- | --- | --- | --- | --- | --- | --- | --- | --- |
| CCNC(=O)c1ccc(F)c(NC(=O)c2cc(C(C)(C)C)nn2CC)c1 [Compound 2, 3-(1,1-dimethylethyl)-1-ethyl-N-[5-[(ethylamino)carbonyl]-2-fluorophenyl]-1H-pyrazole-5-carboxamide] | 25 | 65 | 15 | 13 | 8 | 15 |  |  |
| CCc1nn(C(C)(C)C)cc1C(=O)Nc1cc(C(=O)N(CC)CC)ccc1F [Compound 223] |  |  |  |  |  |  | 50 | 100 |
